According to US5536750A, “Inhibitors of farnesyl-protein transferase” (Merck & Co., Inc., priority 1994, dated 1996):

What was measured:
[1] = system: Ras farnesylation (viral Ha-ras p21) in the v-ras cell line; experiment: In vivo ras farnesylation assay in the v-ras cell line; type: cell-based; conditions: v-ras cells; 4 hours at 37° C. then additional 20 hours with [35S]methionine; read-out: IC50, inhibition of Ras farnesylation in the v-ras cell line
Method: The cell line used in this assay was the v-ras line, which expressed viral Ha-ras p21. The assay was performed essentially as described in DeClue, J. E. et. al., Cancer Research 51:712-717, (1991). Cells in 10 cm dishes at 50-75% confluency were treated with the test s compound (final concentration of solvent, methanol or dimethyl sulfoxide, was 0.1%). After 4 hours at 37° C., the cells were labelled in 3 ml methionine-free DMEM supplemented with 10% regular DMEM, 2% fetal bovine serum and 400 μCi[^35 S]methionine (1000 Ci/mmol). After an additional 20 hours, the cells were lysed in 1 ml lysis buffer (1% NP40/20 mM HEPES, pH 7.5/5 mM MgCl2 /1 mM DTT/10 μg/ml aprotinen/2 μg/ml leupeptin/2 μg/ml antipain/0.5 mM PMSF) and the lysates cleared by centrifugation at 100,000 × g for 45 min. Aliqouts of lysates containing equal numbers of acid-precipitable counts were bought to 1 ml with IP buffer (lysis buffer lacking DTT) and immunoprecipitated with the ras-specific monoclonal antibody Y13-259 (Furth, M. E. et. al., J. Virol. 43:294-304, (1982)). Following a 2 hour antibody incubation at 4° C., […] of a 25% suspension of protein A-Sepharose coated with rabbit anti rat IgG was added for 45 min. […]

[2] = biological target: T1, Bovine FPTase (Bos taurus, UniProt P29702+P49355); experiment: In vitro inhibition of ras farnesyl transferase, partially purified bovine FPTase, Ras-CVLS and [3H]-FPP; type: biochemical; conditions: 650 nM Ras-CVLS, pH 7.4, 31° C., 60 min, read-out: IC50, inhibition of RAS farnesylation (concentration giving 50% inhibition of FTase)
T1 construct: Partially purified bovine FPTase; from tissue
Method: Assays of farnesyl-protein transferase. Partially purified bovine FPTase and Ras peptides (Ras-CVLS, Ras-CVIM and RAS-CAIL) were prepared as described by Schaber et al., J. Biol. Chem. 265:14701-14704 (1990), Pompliano, et al., Biochemistry 31:3800 (1992) and Gibbs et at., PNAS U.S.A. 86:6630-6634 (1989), respectively. Bovine FPTase was assayed in a volume of 100 μl containing 100 mM N-(2-hydroxy ethyl) piperazine-N'-(2-ethane sulfonic acid) (HEPES), pH 7.4, 5 mM MgCl2, 5 mM dithiothreitol (DTT), […] [^3 H]-farnesyl diphosphate ([^3 H]-FPP; […], New England Nuclear), 650 nM Ras-CVLS and 10 μg/ml FPTase at 31° C. for 60 min. Reactions were initiated with FPTase and stopped with 1 ml of 1.0M HCL in ethanol. Precipitates were collected onto filter-mats using a TomTec Mach II cell harvestor, washed with 100% ethanol, dried and counted in an LKB β-plate counter. The assay was linear with respect to both substrates, FPTase levels and time; less than 10% of the [ ^3 H]-FPP was utilized during the reaction period. Purified compounds were dissolved in 100% dimethyl sulfoxide (DMSO) and were diluted 20-fold into the assay. Percentage inhibition is measured by the amount of incorporation of farnesyl in the presence of the test compound when compared to the amount of incorporation in the absence of the test compound.

[3] = biological target: T2, Human FPTase (Homo sapiens, UniProt P49354+P49356); experiment: In vitro inhibition of ras farnesyl transferase, recombinant human FPTase, Ras-CVIM and [3H]-FPP; type: biochemical; conditions: 100 nM Ras-CVIM, 30 min, read-out: IC50, inhibition of RAS farnesylation (concentration giving 50% inhibition of FTase)
T2 construct: made in house

[4] = system: Ras farnesylation; conditions: Hancock et al., Casey et al., Schafer et al.; cited from earlier work

SMILES	IC50 [1] [µM]	Inhibition of Ras farnesylation in vivo [4]	further results
CC[C@H](C)[C@@H](C(=O)N[C@H]1CCOC1=O)N(C)C[C@@H](NC[C@@H](N)CS)[C@@H](C)CC [N-[2(S)-(2(R)-Amino-3-mercaptopropylamino)-3(S)-methylpentyl]-N-methyl-isoleucyl-homoserine lactone]	50		
CC[C@H](C)[C@@H](C(=O)N[C@@H](CCO)C(=O)O)N(C)C[C@@H](NC[C@@H](N)CS)[C@@H](C)CC [N-[2(S)-(2(R)-Amino-3-mercaptopropylamino)-3(S)-methylpentyl]-N-methyl-isoleucyl-homoserine]			IC50 [2]: 0.072 µM
CC[C@H](C)[C@@H](C(=O)N[C@@H](CCSC)C(=O)OC)N(C)C[C@@H](NC[C@@H](N)CS)[C@@H](C)CC [N-[2(S)-(2(R)-amino-3-mercaptopropylamino)-3(S)-methyl-pentyl]-N-methyl-isoleucyl-methionine methyl ester]	5		
CC[C@H](C)[C@@H](C(=O)N[C@@H](CCSC)C(=O)O)N(C)C[C@@H](NC[C@@H](N)CS)[C@@H](C)CC [N-[2(S)-(2(R)-amino-3-mercaptopropylamino)-3(S)-methyl-pentyl]-N-methyl-isoleucyl-methionine]			IC50 [3]: 0.02 µM
CC[C@H](C)C(=O)O[C@H]1CCC=C2C=C[C@H](C)[C@H](CC[C@@H]3C[C@@H](O)CC(=O)O3)[C@H]21 [compactin]		Inhibition of Ras farnesylation in vivo has been demonstrated	
CC[C@H](C)C(=O)O[C@H]1C[C@@H](C)C=C2C=C[C@H](C)[C@H](CC[C@@H]3C[C@@H](O)CC(=O)O3)[C@H]21 [lovastatin]		Inhibition of Ras farnesylation in vivo has been demonstrated	
